# Assay results from PMC10084758, “Crystal Structure and Biochemical Analysis of a Cytochrome P450 Steroid Hydroxylase (BaCYP106A6) from Bacillus Species” (Journal of Microbiology and Biotechnology, 2022).
# Target: T1, BaCYP106A6 (Bacillus sp. (in: firmicutes), UniProt Z9J180VW61)
# T1 construct: His-tagged, pET28a(+), E. coli C41(DE3); Co2+ resin; monomer; N-terminus MLKEVI and C-terminus NVYK deduced from printed primers; heme-ligating Cys356; unique Arg295
# T1 sequence (Z9J180VW61 1-410): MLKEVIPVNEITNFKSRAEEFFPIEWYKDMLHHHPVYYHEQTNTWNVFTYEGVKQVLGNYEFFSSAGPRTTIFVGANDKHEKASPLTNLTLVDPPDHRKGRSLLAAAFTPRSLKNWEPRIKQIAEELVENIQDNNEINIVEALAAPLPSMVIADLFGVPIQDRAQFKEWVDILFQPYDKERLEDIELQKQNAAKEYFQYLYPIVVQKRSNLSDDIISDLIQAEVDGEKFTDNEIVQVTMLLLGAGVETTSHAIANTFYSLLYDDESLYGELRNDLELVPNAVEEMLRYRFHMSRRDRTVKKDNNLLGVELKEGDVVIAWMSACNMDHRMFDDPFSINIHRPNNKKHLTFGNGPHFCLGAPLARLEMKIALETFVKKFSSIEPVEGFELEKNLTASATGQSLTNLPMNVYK
# Test: UV-visible type I difference spectral titration
# Format: binding
row,SMILES,Kd [µM]
1,C[C@]12CCC(=O)C=C1CC[C@@H]1[C@@H]2CC[C@]2(C)C(=O)CC[C@@H]12 [androstenedione],36.6
2,CC(=O)[C@H]1CC[C@H]2[C@@H]3CCC4=CC(=O)CC[C@]4(C)[C@H]3CC[C@]12C [progesterone],38.4
